Legend:
sarcoma 180 tumor cells = test: Sarcoma 180 tumor model (i.p.), median survival time T/C; format: in vivo, female NMRI mice; conditions: for T/C (median survival time) / cure rate (cured animals/treated animals): single dose
Method: 1. Sarcoma 180 tumor model
In each case about 10^6 sarcoma 180 tumor cells in 0.2 ml of physiological saline solution are transferred intraperitoneally (I.P.) to female NMRI mice which are about 6 weeks old and weigh 18 to 20 g. The tumor is kept in passage in the same mouse strain. The tumor cells are removed from freshly killed animals immediately before transplantation. On inoculation, the animals are randomized. 6 mice are used per dosage. Cisplatin and cyclophosphamide are used as the control substances. The number of control groups (untreated animals) is chosen such that it corresponds to about the square root of the total number of groups. The substances are injected intraperitoneally, in each case 24 hours after the transplantation, as suspensions in customary solubilizing agents, such as Tween® (polyoxyethylene derivatives of sorbitan esters).
The stated dose was administered once at the start of the experiment, as described. The factor T/C given in per cent denotes the percentage increase in median survival time of the treated animals compared with the median survival time of the untreated control animals. In some cases, the cure rate, that is to say the number of cured animals in relation to the number of treated animals, is given in the Table, in parentheses after the factor T/C.
The experiment is discontinued as soon as the median survival time T/C of the treated animals has reached 300% of the median survival time of the untreated animals. In calculating the median survival time, the animals still alive at the end of the experiment are taken as being dead at the end of the experiment.

ascitic Ehrlich tumors = conditions: mice; cited from earlier work
[1] = test system: testicular tumors, ovarian tumors, oat-cell carcinomas; conditions: cited from earlier work
sarcoma 180 cells = test: subcutaneously transplanted sarcoma 180, intravenous therapy; format: in vivo, female mice; conditions: 4 mg/kg i.v. as Tween 60 coprecipitate (1:20), twice weekly for 4 weeks, from 2nd week
Method: In a further experiment, about 5×10^6 sarcoma 180 cells were subcutaneously transplanted into twelve female mice on day 0. From the 2nd week after the transplantation, six animals were given intravenous therapy with 4 mg/kg of dichlorobis(benzoylacetonato)titanium(IV) as a Tween® 60 coprecipitate (1:20) in aqueous solution, twice weekly for 4 weeks.

Yoshida sarcoma cells = test: subcutaneously transplanted Yoshida sarcoma, intravenous therapy; format: in vivo, female SD rats
Method: In a further experiment, about 5×10^6 Yoshida sarcoma cells were subcutaneously transplanted into female SD rats on day 0. In the second week, 4 mg/kg of dichlorobis(benzoylacetonato)titanium(IV) as a Tween® 60 coprecipitate (1:20) in aqueous solution were administered intravenously twice. […] The recidives were treated intravenously twice weekly with the original dose for four weeks.

[2] = 4 mg/kg i.v. as Tween 60 coprecipitate (1:20), twice in second week

Compound: CC(=O)C=C([O][Zr]([Cl])([Cl])[O]C(=CC(C)=O)c1ccccc1)c1ccccc1 [dichlorobis(benzoylacetonato)zirconium(IV)]
- T/C (median survival time) (sarcoma 180 tumor cells; 31 mg/kg i.p.): 234%
- T/C (median survival time) (sarcoma 180 tumor cells; 46 mg/kg i.p.): 300%
- T/C (median survival time) (sarcoma 180 tumor cells; 68 mg/kg i.p.): 300%
- T/C (median survival time) (sarcoma 180 tumor cells; 97 mg/kg i.p.): 300%
- T/C (median survival time) (sarcoma 180 tumor cells; 145 mg/kg i.p.): 193%
- T/C (median survival time) (sarcoma 180 tumor cells; 208 mg/kg i.p.): 144%

Compound: CC(=O)C=C([O][Hf]([Cl])([Cl])[O]C(=CC(C)=O)c1ccccc1)c1ccccc1 [Dichlorobis(benzoylacetonato)hafnium(IV)]
- T/C (median survival time) (sarcoma 180 tumor cells; 114 mg/kg i.p.): 130%
- T/C (median survival time) (sarcoma 180 tumor cells; 172 mg/kg i.p.): 267%
- T/C (median survival time) (sarcoma 180 tumor cells; 246 mg/kg i.p.): 300%

Compound: [Cl][Zr+2][Cl].c1cc[cH-]c1.c1cc[cH-]c1 [zirconocene dichloride]
- action on ascitic Ehrlich tumors (ascitic Ehrlich tumors): inhibiting action

Compound: N.N.[Cl][Pt][Cl] [cisplatin, cis-diamminedichloroplatinum(II), reference compound]
- T/C (median survival time) (sarcoma 180 tumor cells; 1 mg/kg i.p.): 112%
- cure rate (cured animals/treated animals) (sarcoma 180 tumor cells; 1 mg/kg i.p.): 0/6
- T/C (median survival time) (sarcoma 180 tumor cells; 2 mg/kg i.p.): 133%
- cure rate (cured animals/treated animals) (sarcoma 180 tumor cells; 2 mg/kg i.p.): 0/6
- T/C (median survival time) (sarcoma 180 tumor cells; 3 mg/kg i.p.): 300%
- cure rate (cured animals/treated animals) (sarcoma 180 tumor cells; 3 mg/kg i.p.): 2/6
- T/C (median survival time) (sarcoma 180 tumor cells; 5 mg/kg i.p.): 300%
- cure rate (cured animals/treated animals) (sarcoma 180 tumor cells; 5 mg/kg i.p.): 5/6
- T/C (median survival time) (sarcoma 180 tumor cells; 8 mg/kg i.p.): 300%
- cure rate (cured animals/treated animals) (sarcoma 180 tumor cells; 8 mg/kg i.p.): 6/6
- T/C (median survival time) (sarcoma 180 tumor cells; 13 mg/kg i.p.): 300%
- cure rate (cured animals/treated animals) (sarcoma 180 tumor cells; 13 mg/kg i.p.): 6/6
- T/C (median survival time) (sarcoma 180 tumor cells; 22 mg/kg i.p.): 42%
- cure rate (cured animals/treated animals) (sarcoma 180 tumor cells; 22 mg/kg i.p.): 0/6
- median survival time compared with untreated controls (sarcoma 180 tumor cells; about 20 mg/kg): shorter than that of the untreated control animals
- cure of animals (sarcoma 180 tumor cells; about 8 to 10 mg/kg): most of the animals are cured
- renal damage and damage to hearing ([1]; after only a single therapeutic dose): found with considerable frequency
- nausea and retching [1]: long-lasting severe nausea
- antitumor activity ([1]; testicular tumors, ovarian tumors, oat-cell carcinomas): extremly potent antitumor agent

Compound: titanocene dichloride
- action on ascitic Ehrlich tumors (ascitic Ehrlich tumors): inhibiting action

Compound: CC(=O)[CH-]C(=O)c1ccccc1.CC(=O)[CH-]C(=O)c1ccccc1.[F-].[F-].[Ti+4] [Difluorobis(benzoylacetonato)titanium(IV)]
- T/C (median survival time) (sarcoma 180 tumor cells; 4 mg/kg i.p.): 97%
- cure rate (cured animals/treated animals) (sarcoma 180 tumor cells; 4 mg/kg i.p.): 0/6
- T/C (median survival time) (sarcoma 180 tumor cells; 15 mg/kg i.p.): 115%
- cure rate (cured animals/treated animals) (sarcoma 180 tumor cells; 15 mg/kg i.p.): 0/6
- T/C (median survival time) (sarcoma 180 tumor cells; 38 mg/kg i.p.): 209%
- cure rate (cured animals/treated animals) (sarcoma 180 tumor cells; 38 mg/kg i.p.): 1/6
- T/C (median survival time) (sarcoma 180 tumor cells; 52 mg/kg i.p.): 300%
- cure rate (cured animals/treated animals) (sarcoma 180 tumor cells; 52 mg/kg i.p.): 4/6
- T/C (median survival time) (sarcoma 180 tumor cells; 75 mg/kg i.p.): 154%
- cure rate (cured animals/treated animals) (sarcoma 180 tumor cells; 75 mg/kg i.p.): 0/6
- T/C (median survival time) (sarcoma 180 tumor cells; 113 mg/kg i.p.): 300%
- cure rate (cured animals/treated animals) (sarcoma 180 tumor cells; 113 mg/kg i.p.): 3/6
- T/C (median survival time) (sarcoma 180 tumor cells; 162 mg/kg i.p.): 300%
- cure rate (cured animals/treated animals) (sarcoma 180 tumor cells; 162 mg/kg i.p.): 4/6
- T/C (median survival time) (sarcoma 180 tumor cells; 238 mg/kg i.p.): 300%
- cure rate (cured animals/treated animals) (sarcoma 180 tumor cells; 238 mg/kg i.p.): 2/6

Compound: CC(=O)C=C([O][Zr]([Br])([Br])[O]C(=CC(C)=O)c1ccccc1)c1ccccc1 [dibromobis(benzoylacetonato)zirconium(IV)]
- T/C (median survival time) (sarcoma 180 tumor cells; 54 mg/kg i.p.): 300%
- T/C (median survival time) (sarcoma 180 tumor cells; 80 mg/kg i.p.): 300%
- T/C (median survival time) (sarcoma 180 tumor cells; 126 mg/kg i.p.): 191%
- T/C (median survival time) (sarcoma 180 tumor cells; 172 mg/kg i.p.): 172%
- T/C (median survival time) (sarcoma 180 tumor cells; 247 mg/kg i.p.): 184%

Compound: CC(=O)C=C([O][Zr]([Br])([O]C(=CC(C)=O)c1ccccc1)[O]C(=CC(C)=O)c1ccccc1)c1ccccc1 [Bromotris(benzoylacetonato)zirconium(IV)]
- T/C (median survival time) (sarcoma 180 tumor cells; 92 mg/kg i.p.): 300%
- T/C (median survival time) (sarcoma 180 tumor cells; 209 mg/kg i.p.): 297%
- T/C (median survival time) (sarcoma 180 tumor cells; 471 mg/kg i.p.): 187%

Compound: [Cl-].[Cl-].[Hf+4].c1cc[cH-]c1.c1cc[cH-]c1 [hafnocene dichloride]
- action on ascitic Ehrlich tumors (ascitic Ehrlich tumors): inhibiting action

Compound: CC(=O)[CH-]C(=O)c1ccccc1.CC(=O)[CH-]C(=O)c1ccccc1.[Cl-].[Cl-].[Ti+4] [Dichlorobis(benzoylacetonato)titanium(IV)]
- T/C (median survival time) (sarcoma 180 tumor cells; 4 mg/kg i.p.): 118%
- cure rate (cured animals/treated animals) (sarcoma 180 tumor cells; 4 mg/kg i.p.): 0/6
- T/C (median survival time) (sarcoma 180 tumor cells; 16 mg/kg i.p.): 115%
- cure rate (cured animals/treated animals) (sarcoma 180 tumor cells; 16 mg/kg i.p.): 0/6
- T/C (median survival time) (sarcoma 180 tumor cells; 41 mg/kg i.p.): 291%
- cure rate (cured animals/treated animals) (sarcoma 180 tumor cells; 41 mg/kg i.p.): 2/6
- T/C (median survival time) (sarcoma 180 tumor cells; 57 mg/kg i.p.): 179%
- cure rate (cured animals/treated animals) (sarcoma 180 tumor cells; 57 mg/kg i.p.): 0/6
- T/C (median survival time) (sarcoma 180 tumor cells; 82 mg/kg i.p.): 300%
- cure rate (cured animals/treated animals) (sarcoma 180 tumor cells; 82 mg/kg i.p.): 4/6
- T/C (median survival time) (sarcoma 180 tumor cells; 123 mg/kg i.p.): 212%
- cure rate (cured animals/treated animals) (sarcoma 180 tumor cells; 123 mg/kg i.p.): 1/6
- T/C (median survival time) (sarcoma 180 tumor cells; 177 mg/kg i.p.): 251%
- cure rate (cured animals/treated animals) (sarcoma 180 tumor cells; 177 mg/kg i.p.): 1/6
- T/C (median survival time) (sarcoma 180 tumor cells; 259 mg/kg i.p.): 300%
- cure rate (cured animals/treated animals) (sarcoma 180 tumor cells; 259 mg/kg i.p.): 5/6
- outcome of treatment (sarcoma 180 cells): cured at the end of therapy
- recidives after three weeks (plum-sized) (Yoshida sarcoma cells; [2]): two out of three animals
- tumor regression (Yoshida sarcoma cells; [2]): The tumor regressed
- cured animals after first treatment (Yoshida sarcoma cells; 4 mg/kg i.v. as Tween 60 coprecipitate (1:20), twice in second week, three animals): One animal was cured
- cured animals after treatment of recidives (Yoshida sarcoma cells; original dose i.v. twice weekly for four weeks, two animals with recidives): Both animals were cured

Compound: CC(=O)[CH-]C(=O)c1ccccc1.CC(=O)[CH-]C(=O)c1ccccc1.[Br-].[Br-].[Ti+4] [Dibromobis(benzoylacetonato)titanium(IV)]
- T/C (median survival time) (sarcoma 180 tumor cells; 5 mg/kg i.p.): 103%
- cure rate (cured animals/treated animals) (sarcoma 180 tumor cells; 5 mg/kg i.p.): 0/6
- T/C (median survival time) (sarcoma 180 tumor cells; 20 mg/kg i.p.): 115%
- cure rate (cured animals/treated animals) (sarcoma 180 tumor cells; 20 mg/kg i.p.): 0/6
- T/C (median survival time) (sarcoma 180 tumor cells; 50 mg/kg i.p.): 288%
- cure rate (cured animals/treated animals) (sarcoma 180 tumor cells; 50 mg/kg i.p.): 1/6
- T/C (median survival time) (sarcoma 180 tumor cells; 70 mg/kg i.p.): 300%
- cure rate (cured animals/treated animals) (sarcoma 180 tumor cells; 70 mg/kg i.p.): 3/6
- T/C (median survival time) (sarcoma 180 tumor cells; 100 mg/kg i.p.): 300%
- cure rate (cured animals/treated animals) (sarcoma 180 tumor cells; 100 mg/kg i.p.): 3/6
- T/C (median survival time) (sarcoma 180 tumor cells; 150 mg/kg i.p.): 300%
- cure rate (cured animals/treated animals) (sarcoma 180 tumor cells; 150 mg/kg i.p.): 4/6
- T/C (median survival time) (sarcoma 180 tumor cells; 215 mg/kg i.p.): 273%
- cure rate (cured animals/treated animals) (sarcoma 180 tumor cells; 215 mg/kg i.p.): 1/6
- T/C (median survival time) (sarcoma 180 tumor cells; 315 mg/kg i.p.): 300%
- cure rate (cured animals/treated animals) (sarcoma 180 tumor cells; 315 mg/kg i.p.): 5/6

Source: patent US4804681A, “Metal complexes having an antineoplastic action and medicaments containing these complexes” (priority 1980, dated 1989)
